What was measured:
Caco-2 cells [1] = experiment: MTT cytotoxicity assay on Caco-2 cells; assay type: cell-based, Human; conditions: Homo sapiens, 24 h, mean ± SD, n = 4, read-out: Inhibition Rate %
Method: (§1) Human intestinal Caco-2 cells (ATCC, Rockville, MD, USA) were incubated at 37 °C in a humidified atmosphere of 5% CO2 in air. The cells were cultured in Dulbecco’s […] medium (DMEM) with 10% heat-inactivated fetal bovine serum, 1% non-essential amino acids, 1% L-glutamine, 1% penicillin/streptomycin (Gibco Life Technologies, Grand Island, NY, USA). The cells were sub-cultured at confluence by 0.05% trypsin-0.5 mM EDTA treatment before they were applied in the experiment.
(§2) A MTT test was conducted to determine the possible toxicity of UA and its derivatives to Caco-2 cells. Briefly, cells were seeded at a density of 1 × 10^4 cells/mL in a 96-well plate and incubated for 24 h. The next day, cells were incubated with vehicle (0.1% DMSO) and compounds at 100, 50, 25, 12.5 μmol/L for 24 h, and then 5 g/L MTT solution (20 μL) was added for 4 h. Absorbance at 570 nm was measured using a Multimodel Plate Reader (Infinite 200, Tecan, Mannedorf, Switzerland).

[2] = MTT cytotoxicity assay on Caco-2 cells; assay type: cell-based, Human; conditions: human
Method: as §1, §2

[3] = test system: STZ-induced diabetic rats; experiment: Body weight and daily food intake of STZ-induced diabetic rats; assay type: in vivo, rat; conditions: compounds 100 mg/kg, glibenclamide 10 mg/kg, oral
Method: (§3) Diabetes was induced by a single intraperitoneal injection of streptozotocin (Sigma-Aldrich, St. Louis, MO, USA) at a dose of 65 mg/kg body weight. STZ was dissolved in 0.1 M cold citrate buffer, pH 4.5. Control group were injected with citrate buffer alone. After 7 days for the development of diabetes, plasma glucose levels were determined of each rat. Rats with fasting blood glucose (FBG) range of above 16.7 mmol/L were considered as DM rats and were used for further study.
(§4) According to the body weight and plasma glucose levels the rats were divided randomly into seven groups with six rats each and treated as follows: • Group I: Normal rats treated with 0.5% CMC-Na (2 mL/200 g body weight). • Group II: Diabetic rats treated with 0.5% CMC-Na. • Group III: Diabetic rats treated with 10 mg/kg of glibenclamide. • Group IV: Diabetic rats treated with 100 mg/kg of compound 1 (UA). • Group V: Diabetic rats treated with 100 mg/kg of compound 10. • Group VI: Diabetic rats treated with 100 mg/kg of compound 11. • Group VII: Diabetic rats treated with 100 mg/kg of compound 12.
(§5) The treatment was continued daily for 28 days. Blood glucose levels and body weight were measured every week to ascertain the status of diabetes. After 4 weeks of treatment, the animals were fasted for 12 h and sacrificed by cervical dislocation under mild anaesthetization, blood was collected into heparinized tubes and centrifuged at 2,000 rpm for 10 min. Livers and kidneys were removed, washed and homogenized in ice-cold normal saline. This homogenates were centrifuged at 3,000 rpm for 10 min at 4 °C, and the supernatants were collected for the estimate of antioxidant markers.

GLUT-2 = experiment: Western blot of GLUT-2 protein expression in Caco-2 cells; assay type: cell-based, Human; conditions: 100 μM, 6 h
Method: Caco-2 cells were cultured on 6-well plates at a density of 1 × 10^6 cells/well for 13 days. The cells were placed in serum-free medium for 24 h prior to the treatment. Then UA and its derivatives (100 μM) were added, after 6 h incubation, the cells were immediately washed three times with ice-cold PBS and lysed in 200 μL lysis buffer. Cells were allowed to lyse on ice, and then scraped, vortexed, sonicated and stored at −80 °C for further analysis. Protein concentrations were determined as described and cell lysate was subjected to western blot analysis. Briefly, proteins with same amount were denatured in sample buffer, separated on 8% SDS-PAGE gel, and transferred onto a polyvinylidene diflouride membrane. The membranes were blocked for 1 h at 37 °C with 10% defatted milk in Tris-buffered saline (10 mM Tris-HCl, pH 7.5 and 137 mM NaCl) containing 0.05% Tween 20 (TBST). Membranes were then incubated overnight at 4 °C in blocking buffer with antibodies for GLUT-2, SGLT-1 and β-actin (EMD, Millipore, Billerica, MA, USA). Membranes were washed with TBST and incubated 1 h with appropriate secondary antibodies. Revelation was performed by using the enhanced chemiluminescence reagent and blue-light sensitive film. Densitometric analysis of films was performed with a Hewlett-Packard scanner equipped with a transparent adaptor and UN-SCAN-IT software.

Caco-2 cells [4] = experiment: 2-NBDG glucose uptake by Caco-2 cell monolayers, Na+-independent (sodium free buffer); assay type: cell-based, Human; conditions: 100 μM compound, Na+-independent (KCl/K2HPO4 buffer)
Method: Caco-2 cells, which were derived from human colon adenocarcinoma, were selected for intestinal absorption studies because these cells express the morphological characteristics and most of the functional properties of differentiated small-intestinal enterocytes. Caco-2 cells were seeded on 24-well plates at the density of 2 × 10^5 cells/well. The medium was changed every 1–2 days, and the culture was carried out for 13 days. Then Caco-2 cells were placed in serum-free media for 24 h and then they were washed twice with Hanks’ balanced salt solution (HBSS, pH 7.5, 140 mM NaCl, 5 mM KCl, 1.2 mM Na2HPO4, 2 mM CaCl2, 1.2 mM MgSO4, 20 mM HEPES, 0.2% bovine serum albumin) before the uptake studies. When a sodium free buffer was required, NaCl and Na2HPO4 were replaced with equal amounts of KCl and K2HPO4, respectively. After washing, the cells were incubated for 15 min at room temperature in HBSS before the commencement of this experiment. The uptake studies were initiated by adding HBSS containing either control or test solution (100 μM) and […] (100 μM) for 30 min at 37 °C. Glucose uptake was stopped by adding twofold volume of ice-cold PBS and the wells were washed with ice-cold PBS three times. Fluorescent intensity was measured by a Multimodel Plate Reader (Tecan Infinity 200) with the 485 nmex and 535 nmemiss filter set before and after adding 2-NBDG. Then the cells were lysed in 200 μL lysis buffer (10 mM Tris-HCl pH = 7.4, 150 mM NaCl, 1% Triton-x-100, 1 mM EDTA, 0.1% SDS) and supplemented immediately before they were processed with 10 μg/mL PMSF. Cells were allowed to lyse on ice, and then vortexed and sonicated. The lysate was used for protein determination, protein concentrations were determined as described by BCA kit (Boster, Wuhan, China) with bovine serum albumin as standard.

[5] = test system: STZ-induced diabetic rats; experiment: Serum lipid profile (TG, TC, LDL-C, HDL-C) in STZ-induced diabetic rats; assay type: in vivo, rat; conditions: 4 weeks, compounds 100 mg/kg, glibenclamide 10 mg/kg
Method: as §3, §4, §5
(§6) Fasting blood glucose levels were estimated on days 0, 7, 14, 28 with the single touch glucometer (Life Scan, Johnson & Johnson Company, New Brunswick, NJ, USA). Serum insulin level was measured by use of a commercial immunoassay kit by enzyme linked immunosorbent assay (Uscn. Life Science Inc., Wuhan, China). Serum total protein, albumin, triglycerides (TG), total cholesterol (TC), high-density lipoprotein cholesterol (HDL-C), and low-density lipoprotein cholesterol (LDL-C) were measured with an automatic biochemical analyzer (Sinnowa D240, Nanjing, China).

[6] = test system: STZ-induced diabetic rats; experiment: Serum biochemical parameters (insulin, total protein, albumin) in STZ-induced diabetic rats; assay type: in vivo, rat; conditions: 4 weeks, compounds 100 mg/kg, glibenclamide 10 mg/kg
Method: as §3, §4, §5, §6

[7] = test system: STZ-induced diabetic rats; experiment: Fasting blood glucose in STZ-induced diabetic rats, 4 weeks treatment; assay type: in vivo, rat; conditions: STZ diabetic rats
Method: Adult male albino rats of Sprague-Dawley rats (180–220 g) were obtained from the Guangdong Medical Lab Animal Center, and maintained under standard laboratory conditions in a temperature (25–30 °C) and light-controlled (12-h light/dark cycle) room with 35%–60% humidity. The animals were acclimatized for 10 days before the experiments and provided with rodent chow and water ad libitum. The investigation was conducted in accordance with the Guide for the Care and Use of Laboratory Animals and approved by the institutional Animal Ethics Committee.
as §3, §4, §5, §6

[8] = test system: STZ-induced diabetic rats; experiment: Oxidative stress markers (GSH, SOD, MDA) in liver and kidney of STZ-induced diabetic rats; assay type: in vivo, rat; conditions: 4 weeks
Method: as §3, §4, §5
The tissue homogenates of liver and kidney were used for the estimate of antioxidant markers. Glutathione (GSH) level was measured with 5, 5'-dithiobis-(2-nitrobenzoic acid) (DTNB) as described by Sedlak and Lindsay. Superoxide dismutase (SOD) activity was assessed according to the method of Sinha. Malondialdehyde (MDA) activity was estimated with the thiobarbituric acid method.

**Q.** For `CC(=O)O[C@H]1CC[C@@]2(C)C(CC[C@]3(C)C2CC=C2C4[C@@H](C)[C@H](C)CC[C@]4(C(=O)Nc4ccccc4F)CC[C@]23C)C1(C)C` (stereo partly shown) [Compound 6], which inhibition at 100 µM (Caco-2 cells [1]) is on record?
**A.** Its inhibition at 100 µM is 13.9 ± 4.52%.

**Q.** What about the viability at 24 h, 100 µM [2] of the same compound?
**A.** Its viability at 24 h, 100 µM is 86.1%.

**Q.** Which results are given for `CCCC(=O)O[C@H]1CC[C@@]2(C)C(CC[C@]3(C)C2CC=C2C4[C@@H](C)[C@H](C)CC[C@]4(C(=O)O)CC[C@]23C)C1(C)C` (stereo partly shown) [Compound 11]?
**A.** daily food intake vs untreated diabetic rats [3]: reduce daily food intake significantly; effect on expression of protein GLUT-2 (GLUT-2): significant effects on reducing; glucose uptake, % of the control value (Na+-independent) (Caco-2 cells [4]): 74 % of the control value; serum TC level vs diabetic control [5]: significantly decreased; serum TG level vs diabetic control [5]: significantly decreased; serum albumin level vs diabetic control [6]: no appreciable improvement; serum insulin level vs diabetic control [6]: non-significant effect; serum total protein level vs diabetic control [6]: no appreciable improvement; inhibition at 100 µM (Caco-2 cells [1]): 2.29 ± 6.08%; effect on lowering fasting blood glucose levels ([7]; 100 mg/kg, 4 weeks): no significant effect; Fasting Blood Glucose Level, Week 0 ([7]; Week 0 (before treatment), compounds 100 mg/kg, glibenclamide 10 mg/kg, n = 6): 318.60 ± 17.64 mg/dL; Fasting Blood Glucose Level, Week 1 ([7]; Week 1, compounds 100 mg/kg, glibenclamide 10 mg/kg daily, n = 6): 365.40 ± 20.34 mg/dL; Fasting Blood Glucose Level, Week 2 ([7]; Week 2, compounds 100 mg/kg, glibenclamide 10 mg/kg daily, n = 6): 352.80 ± 27.36 mg/dL; Fasting Blood Glucose Level, Week 3 ([7]; Week 3, compounds 100 mg/kg, glibenclamide 10 mg/kg daily, n = 6): 324.00 ± 23.04 mg/dL; Fasting Blood Glucose Level, Week 4 ([7]; Week 4, compounds 100 mg/kg, glibenclamide 10 mg/kg daily, n = 6): 351.00 ± 26.64 mg/dL; GSH level in kidney ([8]; kidney of STZ diabetic rats): great effect; SOD level in the liver and kidney ([8]; liver and kidney of STZ diabetic rats): great improvement

Source: article PMC6270814, “Effects of Ursolic Acid Derivatives on Caco-2 Cells and Their Alleviating Role in Streptozocin-Induced Type 2 Diabetic Rats” (Molecules, 2014)
